The text below walks through data of patent publication US20220386606A1, “SPECIFICALLY SUBSTITUTED 3-PHENYL-5-SPIROCYCLOPENTYL-3-PYRROLIN-2-ONES AND THEIR USE AS HERBICIDES” (Bayer Aktiengesellschaft, priority 2019, published 2022).

Assay [1] concerns SETVI. The experiment in a line: Post-emergence herbicidal action against SETVI. Format: in vivo, Setaria viridis. The following applies: 80 g/ha, visual assessment about 3 weeks after treatment vs untreated controls. As for the experimental part:
(§1) Seeds of monocotyledonous and dicotyledonous weed and crop plants are laid out in sandy loam soil in wood-fiber pots, covered with soil and cultivated in a greenhouse under good growth conditions. 2 to 3 weeks after sowing, the test plants are treated at the one-leaf stage. The compounds of the invention, formulated in the form of wettable powders (WP) or as emulsion concentrates (EC), are then sprayed onto the green parts of the plants as aqueous suspension or emulsion at a water application rate equating to 600 to 800 l/ha with addition of 0.2% wetting agent. After the test plants have been left to stand in the greenhouse under optimal growth conditions for about 3 weeks, the action of the preparations is assessed visually in comparison to untreated controls (herbicidal action in percent (%): 100% activity=the plants have died, 0% activity=like control plants).

The test system of assay [2] is AVEFA. Put plainly: Post-emergence herbicidal action against AVEFA. The class given is in vivo, Avena fatua. The following applies: 80 g/ha, visual assessment after about 3 weeks. As for the experimental part:
as §1

For assay [3], the system named is ECHCG. Put plainly: Pre-emergence herbicidal action against ECHCG. Format: in vivo, Echinochloa crus-galli. Conditions: 320 g/ha, scored visually after 3 weeks vs untreated controls. The source says:
(§2) Seeds of monocotyledonous and dicotyledonous weed plants and crop plants are laid out in sandy loam soil in wood-fiber pots and covered with soil. The compounds of the invention, formulated in the form of wettable powders (WP) or as emulsion concentrates (EC), are then applied to the surface of the covering soil as aqueous suspension or emulsion at a water application rate equating to 600 to 800 L/ha with addition of 0.2% wetting agent.
(§3) After the treatment, the pots are placed in a greenhouse and kept under good growth conditions for the trial plants. The damage to the test plants is scored visually after a test period of 3 weeks by comparison with untreated controls (herbicidal activity in percent (%): 100% activity=the plants have died, 0% activity=like control plants).

Assay [4] deals with LOLRI. The experiment in a line: Pre-emergence herbicidal action against LOLRI (Table 8, titled post-emergence at 320 g/ha). The class given is in vivo, Lolium rigidum. The following applies: table stands in the pre-emergence section.
Source text: as §2, §3

Assay [5] relates to SETVI. The experiment in a line: Pre-emergence herbicidal action against SETVI. The class given is in vivo, Setaria viridis. The following applies: 320 g/ha, scored visually after 3 weeks vs untreated controls.
Source text: as §2, §3

The subject of assay [6] is ALOMY. Put plainly: Pre-emergence herbicidal action against ALOMY. The class given is in vivo, Alopecurus myosuroides. The following applies: 320 g/ha, scored visually after 3 weeks vs untreated controls.
Source text: as §2, §3

Assay [7] deals with DIGSA. The experiment in a line: Pre-emergence herbicidal action against DIGSA. Format: in vivo, Digitaria sanguinalis. Conditions: 320 g/ha, scored visually after 3 weeks vs untreated controls.
Source text: as §2, §3

The test system of assay [8] is ECHCG. Put plainly: Post-emergence herbicidal action against ECHCG. The class given is in vivo, Echinochloa crus-galli. The following applies: 80 g/ha, visual assessment about 3 weeks after treatment vs untreated controls. As for the experimental part:
as §1

The test system of assay [9] is LOLRI. The experiment in a line: Post-emergence herbicidal action against LOLRI. Format: in vivo, Lolium rigidum. Conditions: 80 g/ha, visual assessment about 3 weeks after treatment vs untreated controls. As for the experimental part: as §1
Assay [10] concerns DIGSA. The experiment in a line: Post-emergence herbicidal action against DIGSA. Format: in vivo, Digitaria sanguinalis. Conditions: 80 g/ha, visual assessment about 3 weeks after treatment vs untreated controls. As for the experimental part:
as §1

A further assay has as its system VIOTR. The experiment in a line: Pre-emergence herbicidal action against VIOTR. Format: in vivo, Viola tricolor. Conditions: 320 g/ha.
Source text: as §2, §3

The subject of assay [11] is ALOMY. The experiment in a line: Post-emergence herbicidal action against ALOMY. Format: in vivo, Alopecurus myosuroides. The following applies: 80 g/ha, visual assessment after about 3 weeks. As for the experimental part: as §1
Assay [12] deals with AVEFA. Put plainly: Pre-emergence herbicidal action against AVEFA. The following applies: 320 g/ha, scored visually after 3 weeks vs untreated controls. Format: in vivo, Avena fatua.
Source text: as §2, §3

Take `C#CCOCC1CCC2(C1)NC(=O)C(c1c(C)cc(C#CC)cc1OC)=C2O` (centres unmarked) [Example I-76]: in the assay with SETVI [1], the “Post-emergence action against SETVI in %” value amounted to 100%. Further, the “Post-emergence action against AVEFA in %” value in the assay on AVEFA [2] is on record as 90%. Moreover, the “Pre-emergence action against ECHCG in %” value with ECHCG [3] turned out to be 100%. Further, the “Pre-emergence herbicidal action against LOLRI in %” value with LOLRI [4] amounted to 100%. The “Pre-emergence action against SETVI in %” value in the assay with SETVI [5] is 100%. The “Pre-emergence action against ALOMY in %” value in the assay with ALOMY [6] is 100%. In addition, in the assay with DIGSA [7], the “Pre-emergence action against DIGSA in %” value amounted to 100%. Moreover, in the assay on ECHCG [8], the “Post-emergence action against ECHCG in %” value is recorded as 100%. For the same compound, the “Post-emergence action against LOLRI in %” value with LOLRI [9] came to 90%. Further, in the assay on DIGSA [10], the “Post-emergence action against DIGSA in %” value amounted to 90%. Moreover, the “Pre-emergence action against VIOTR in %” value in the assay with VIOTR was 90%. The “Post-emergence action against ALOMY in %” value in the assay on ALOMY [11] was 90%.

Consider `CC#Cc1cc(C)c(C2=C(O)C3(CCC(COCC)C3)NC2=O)c(Br)c1` (centres unmarked) [Example I-20], for which the “Post-emergence action against SETVI in %” value in the assay on SETVI [1] turned out to be 100%. Further, the “Pre-emergence action against ECHCG in %” value in the assay with ECHCG [3] stood at 100%. Moreover, in the assay on LOLRI [4], the “Pre-emergence herbicidal action against LOLRI in %” value is given as 100%. Besides, the “Pre-emergence action against SETVI in %” value in the assay with SETVI [5] worked out at 100%. In the assay on ALOMY [6], the “Pre-emergence action against ALOMY in %” value was 100%. Also, in the assay with DIGSA [7], the “Pre-emergence action against DIGSA in %” value worked out at 100%. The “Post-emergence action against ECHCG in %” value with ECHCG [8] worked out at 100%. In addition, the “Post-emergence action against LOLRI in %” value in the assay with LOLRI [9] is recorded as 100%. Also, in the assay on AVEFA [12], the “Pre-emergence action against AVEFA in %” value amounted to 100%. In the assay with DIGSA [10], the “Post-emergence action against DIGSA in %” value is 90%. Also, the “Pre-emergence action against VIOTR in %” value in the assay on VIOTR turned out to be 100%. In addition, the “Post-emergence action against ALOMY in %” value with ALOMY [11] is given as 100%.

On to `CC#Cc1cc(F)c(C2=C(OC(=O)C(C)C)C3(CCC(COC)C3)NC2=O)c(OC)c1` (centres unmarked) [Example P-66], for which the “Post-emergence action against SETVI in %” value with SETVI [1] was 100%. Moreover, the “Post-emergence action against AVEFA in %” value in the assay with AVEFA [2] came out at 90%. Besides, in the assay on ECHCG [3], the “Pre-emergence action against ECHCG in %” value is given as 100%. Also, in the assay on LOLRI [4], the “Pre-emergence herbicidal action against LOLRI in %” value is listed as 90%. In the assay with SETVI [5], the “Pre-emergence action against SETVI in %” value amounted to 100%. Moreover, in the assay with ALOMY [6], the “Pre-emergence action against ALOMY in %” value was determined as 100%. The “Pre-emergence action against DIGSA in %” value in the assay with DIGSA [7] worked out at 100%. In addition, the “Post-emergence action against ECHCG in %” value in the assay on ECHCG [8] came to 100%. Moreover, the “Post-emergence action against LOLRI in %” value in the assay with LOLRI [9] is 100%. Moreover, in the assay with AVEFA [12], the “Pre-emergence action against AVEFA in %” value is 100%. The “Post-emergence action against DIGSA in %” value with DIGSA [10] came out at 100%. Moreover, the “Post-emergence action against ALOMY in %” value with ALOMY [11] came to 90%.

As to `C=CCOCC1CCC2(C1)NC(=O)C(c1c(C)cc(C#CC)cc1OC)=C2O` (centres unmarked) [Example I-45], the “Post-emergence action against SETVI in %” value in the assay on SETVI [1] was 100%. The “Post-emergence action against AVEFA in %” value with AVEFA [2] worked out at 80%. The “Pre-emergence action against ECHCG in %” value with ECHCG [3] is recorded as 100%. The “Pre-emergence herbicidal action against LOLRI in %” value in the assay on LOLRI [4] is listed as 100%. In the assay with SETVI [5], the “Pre-emergence action against SETVI in %” value came to 100%. Further, in the assay with ALOMY [6], the “Pre-emergence action against ALOMY in %” value is recorded as 80%. The “Pre-emergence action against DIGSA in %” value in the assay with DIGSA [7] turned out to be 100%. Further, in the assay with ECHCG [8], the “Post-emergence action against ECHCG in %” value is 100%. Moreover, the “Post-emergence action against DIGSA in %” value in the assay with DIGSA [10] stood at 90%. In addition, the “Pre-emergence action against VIOTR in %” value in the assay with VIOTR turned out to be 80%. Besides, the “Post-emergence action against ALOMY in %” value with ALOMY [11] was 90%.

With `CC#Cc1cc(Br)c(C2=C(O)C3(CCC(COC)C3)NC2=O)c(OCC)c1` (centres unmarked) [Example I-66], the “Post-emergence action against SETVI in %” value in the assay with SETVI [1] is listed as 100%. The “Post-emergence action against AVEFA in %” value in the assay on AVEFA [2] came out at 80%. Moreover, in the assay with ECHCG [3], the “Pre-emergence action against ECHCG in %” value worked out at 100%. Also, in the assay with LOLRI [4], the “Pre-emergence herbicidal action against LOLRI in %” value is on record as 100%. In addition, the “Pre-emergence action against SETVI in %” value in the assay on SETVI [5] turned out to be 100%. Also, the “Pre-emergence action against ALOMY in %” value with ALOMY [6] was found to be 100%. Also, the “Pre-emergence action against DIGSA in %” value in the assay on DIGSA [7] was 100%. Moreover, the “Post-emergence action against ECHCG in %” value in the assay on ECHCG [8] stood at 100%. Moreover, the “Post-emergence action against LOLRI in %” value in the assay on LOLRI [9] amounted to 100%. Besides, in the assay with AVEFA [12], the “Pre-emergence action against AVEFA in %” value is 100%. Moreover, the “Post-emergence action against DIGSA in %” value in the assay with DIGSA [10] worked out at 90%. In addition, the “Post-emergence action against ALOMY in %” value in the assay with ALOMY [11] is 100%.

In the case of `CC#Cc1cc(Br)c(C2=C(O)C3(CCC(COCC)C3)NC2=O)c(OCC)c1` (centres unmarked) [Example I-64], in the assay on SETVI [1], the “Post-emergence action against SETVI in %” value is reported as 100%. For the same compound, in the assay with AVEFA [2], the “Post-emergence action against AVEFA in %” value came to 80%. In addition, in the assay on ECHCG [3], the “Pre-emergence action against ECHCG in %” value was 100%. For the same compound, the “Pre-emergence herbicidal action against LOLRI in %” value in the assay with LOLRI [4] was 100%. In the assay with SETVI [5], the “Pre-emergence action against SETVI in %” value was 100%. Moreover, the “Pre-emergence action against ALOMY in %” value in the assay with ALOMY [6] is reported as 100%. The “Pre-emergence action against DIGSA in %” value in the assay with DIGSA [7] amounted to 100%. Further, the “Post-emergence action against ECHCG in %” value in the assay on ECHCG [8] came out at 100%. Also, in the assay on LOLRI [9], the “Post-emergence action against LOLRI in %” value was determined as 90%. For the same compound, the “Pre-emergence action against AVEFA in %” value in the assay on AVEFA [12] was determined as 80%. For the same compound, in the assay on DIGSA [10], the “Post-emergence action against DIGSA in %” value is listed as 80%. Also, the “Post-emergence action against ALOMY in %” value with ALOMY [11] worked out at 90%.
